Laboratory results published in patent US20260327234A1, “NOVEL COMPOUNDS AS CYP11A1 INHIBITORS AND METHODS OF USE THEREOF” (Shenzhen Ionova Life Science Co., Ltd., priority 2023, published 2026).

Assays:
[1] = target: T1, CYP11A1 (Homo sapiens, UniProt P05108); test: H295R Steroid Biosynthesis Inhibition Assay - inhibition of pregnenolone (P) production catalyzed by CYP11A1 in NCI-H295R cells; format: cell-based; conditions: 48 h, LC-MS/MS, read-out: Inh. of P IC50
T1 construct: measuring the cellular production of pregnenolone (P) catalyzed by CYP11A1; host or cells: NCI-H295R
T1 sequence (P05108 40-521): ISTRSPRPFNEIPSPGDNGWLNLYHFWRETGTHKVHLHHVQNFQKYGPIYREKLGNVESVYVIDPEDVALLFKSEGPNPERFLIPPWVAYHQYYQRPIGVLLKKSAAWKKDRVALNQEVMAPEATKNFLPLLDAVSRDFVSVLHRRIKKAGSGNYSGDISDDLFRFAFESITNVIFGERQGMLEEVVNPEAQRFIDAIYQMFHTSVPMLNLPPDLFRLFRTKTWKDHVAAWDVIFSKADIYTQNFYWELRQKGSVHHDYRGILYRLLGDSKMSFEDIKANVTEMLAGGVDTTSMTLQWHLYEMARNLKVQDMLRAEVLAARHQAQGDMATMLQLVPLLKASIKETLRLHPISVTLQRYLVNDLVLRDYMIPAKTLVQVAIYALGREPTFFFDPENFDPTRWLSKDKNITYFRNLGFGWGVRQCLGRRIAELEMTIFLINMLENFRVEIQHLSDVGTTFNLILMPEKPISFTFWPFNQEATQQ
Protocol: (§1) Steroid Biosynthesis Inhibition by test compounds in NCI-H295R cells (ATCC) was studied by measuring the cellular production of pregnenolone (P) catalyzed by CYP11A1 and the downstream steroid, testosterone (T). Cells were cultured in Dulbecco's modified eagle's medium F12 (DMEM/F12) with phenol red (Gibco, Cat. No. 11330032) supplemented with 2% UltroserG (Pall, Cat. No. 15950-017, USA), 1% ITS-Premix and 1% penicillin and streptomycin (Hyclone, Cat. No. SV30010, USA). Prior to the assay, cells were thawed and passed 4 times. The maximal passage number used for the assay was 10. For this assay, DMEM/F12 without phenol red supplemented with 10% charcoal-stripped fetal bovine serum (VivaCell, Cat. No. C3830-0500, USA) were used. In a 96-well plate, 60,000 cells/well were plated (90 μL/well) and incubated for 24 h. Test compounds, diluted in a serial dilution ranging from 1000 nM to 0.15 nM in the assay medium, were added to the plate. After 48 h of incubation, solution from each well were collected and transferred to individual 1.5 mL centrifuge tubes, and then 5 ng/mL deuterated testosterone (D3-testosterone) and 50 ng/mL deuterated pregnenolone (D4-pregnenolone) in 200 μL acetonitrile were added. After vigorously mixing for 5 min, the mixture was centrifuged at 12,700 rpm for 15 min. An aliquot of 250 μL supernatant was collected and dried under N2 stream. After addition of 150 μL Methanol:water (1:1, v/v) to the dried product, 50 μL sample of this solution was injected into the LC-MS/MS system for analysis.
(§2) The half-maximal inhibitory concentration (IC50) for steroid biosynthesis inhibition was determined by curve-fitting with the 4-variable inhibitory dose response equation using GraphPad Prism software.
(§3) Testosterone and pregnenolone were analyzed using Shimadzu LC30AD HPLC system (Shimadzu, Kyoto, Japan) coupled with AB SCIEX Qtrap 5500 triple quadrupole mass spectrometer (AB Sciex, Framingham, MA, USA) via ESI interface in the positive ionization mode. An ACQUITY UPLC BEH Shield RP18 column (1.7 μm, 2.1×50 mm, Milford, MA, USA) maintained at 40° C. was used to separate analytes and IS form the sample matrix.
(§4) The mobile phase was a mixture of 10 mM ammonium acetate in water containing 0.2% formic acid (A) and methanol containing 0.2% formic acid (B) at a flow rate of 0.6 mL/min. The gradient program was set as follows: from 0 min to 0.5 min, 60% B; from 0.5 min to 3.5 min, 90% B; from 3.5 min to 4.5 min, 90% B; from 4.51 min to 5.0 min, 60% B. The injection volume was […].
(§5) The MS/MS parameters were set as follows: ion spray voltage, 5500 V; curtain gas, 35 psi; Gas 1, 55 psi; Gas 2: 55 psi; temperature, […]. The optimized multiple reaction monitoring (MRM) fragmentation transitions and MS parameters of each analyte are summarized in Table 1.

[2] = target: T2, testosterone (T) production in NCI-H295R cells (Homo sapiens, UniProt P05108); test: H295R Steroid Biosynthesis Inhibition Assay - inhibition of testosterone (T) production in NCI-H295R cells; format: cell-based; conditions: 48 h, LC-MS/MS, read-out: Inh. of T IC50
T2 construct: testosterone measured by LC-MS/MS as downstream steroid
T2 sequence (P05108 40-521): T1 sequence (P05108 40-521)
Protocol: as §1, §2, §3, §4, §5

Row | Structure (SMILES) | IC50 [1] | IC50 [2]
1 | CS(=O)(=O)N1C[C@@H]2[C@@H](COc3coc(CN4Cc5ccccc5C4)cc3=O)[C@@H]2C1 [Compound 1, 2-(isoindolin-2-ylmethyl)-5-(((1R,5S,6r)-3-(methylsulfonyl)-3-azabicyclo[3.1.0]hexan-6-yl)methoxy)-4H-pyran-4-one] | ≤ 40 nM | 41 to 100 nM
2 | CN(C)S(=O)(=O)N1CCC(c2cnc3cc(CN4Cc5ccccc5C4)ccc3n2)CC1 [Compound 99] | 40 to 100 nM | 41 to 100 nM
3 | O[C@H]1CC[C@H](c2nc3cc(CN4Cc5ccccc5C4)ccc3o2)CC1 [Compound 127] | ≤ 40 nM | ≤ 40 nM
4 | O=c1cc(CN2Cc3ccccc3C2)oc2cc(C3CC4(CC(O)C4)C3)oc12 (centres unmarked) [Compound 24] | ≤ 40 nM | ≤ 40 nM
5 | O=S(=O)(C1CC1)N1CCC(c2cnc3cc(CN4Cc5ccccc5C4)ccc3n2)CC1 [Compound 95] | ≤ 40 nM | ≤ 40 nM
6 | CS(=O)(=O)N1CCC(n2cc3ccc(CN4Cc5ccccc5C4)cc3n2)CC1 [Compound 131] | ≤ 40 nM | ≤ 40 nM
7 | O=C(C(F)F)N1CCC(c2cnc3cc(CN4Cc5ccccc5C4)ccc3n2)CC1 [Compound 103] | 40 to 100 nM | ≥ 101 nM
8 | O=c1cc(CN2Cc3ccccc3C2)oc2cc([C@@H]3CCC[C@@H](O)CC3)oc12 (racemic) [Compound 42] | ≤ 40 nM | ≤ 40 nM
9 | CS(=O)(=O)N1CCC(c2ccc3nc(CN4Cc5ccccc5C4)ccc3n2)CC1 [Compound 79] | ≤ 40 nM | ≤ 40 nM
10 | CO[C@H]1CC[C@H](c2cc3oc(CN4Cc5ccccc5C4)cc(=O)c3o2)CC1 [Compound 38] | ≤ 40 nM | ≤ 40 nM
11 | CP(C)(=O)c1ccc(-c2cc3oc(CN4Cc5ccccc5C4)cc(=O)c3o2)cc1 [Compound 50] | ≥ 100 nM | ≥ 101 nM
12 | O=c1cc(CN2Cc3ccccc3C2)oc2cc([C@H]3CC[C@H](O)CC3)oc12 [Compound 29] | ≤ 40 nM | ≤ 40 nM
13 | CS(=O)(=O)N1CCC(c2cc(=O)c3nc(CN4Cc5ccccc5C4)ccc3o2)CC1 [Compound 61] | ≥ 100 nM | ≥ 101 nM
14 | NC(=O)[C@H]1CC[C@H](c2cc3oc(CN4Cc5ccccc5C4)cc(=O)c3o2)CC1 [Compound 46] | ≤ 40 nM | ≤ 40 nM
15 | N#C[C@H]1CC[C@H](c2cc3oc(CN4Cc5ccccc5C4)cc(=O)c3o2)CC1 [Compound 48] | ≤ 40 nM | 41 to 100 nM
16 | C[C@]1(O)CC[C@@H](c2cc3oc(CN4Cc5ccccc5C4)cc(=O)c3o2)CC1 [Compound 28] | ≤ 40 nM | ≥ 101 nM
17 | O=S(=O)(C1CCCC1)N1CCC(c2cnc3cc(CN4Cc5ccccc5C4)ccc3n2)CC1 [Compound 96] | ≤ 40 nM | ≤ 40 nM
18 | CS(=O)(=O)N1CCC(c2cnc3cc(CN4Cc5ccc(F)cc5C4)ccc3n2)CC1 [Compound 87] | ≤ 40 nM | ≤ 40 nM
19 | CS(=O)(=O)N1CCC(c2cc3oc(CN4Cc5ccc(F)cc5C4)cc(=O)c3o2)CC1 [Compound 17] | ≤ 40 nM | ≤ 40 nM
20 | CC(c1cc(=O)c2oc([C@H]3CC[C@H](O)CC3)cc2o1)N1Cc2ccccc2C1 (some centres unmarked) [Compound 31] | ≤ 40 nM | ≤ 40 nM
21 | CC(Oc1ccc(CN2Cc3ccccc3C2)c2cccnc12)C1CCN(S(C)(=O)=O)CC1 (centres unmarked) [Compound 11] | ≤ 40 nM | 41 to 100 nM
22 | Cn1ccc(C(=O)N2CCC(c3cnc4cc(CN5Cc6ccccc6C5)ccc4n3)CC2)n1 [Compound 106] | ≤ 40 nM | ≥ 101 nM
23 | CCNC(=O)N1CCC(c2cnc3cc(CN4Cc5ccccc5C4)ccc3n2)CC1 [Compound 116] | 40 to 100 nM | ≥ 101 nM

Row | Structure (SMILES) | IC50 [1] | IC50 [2]
24 | CS(=O)(=O)N1CCC(c2cc3oc(CN4Cc5ccccc5C4)cc(=O)c3o2)CC1 [Compound 14] | ≤ 40 nM | ≤ 40 nM
25 | CS(=O)(=O)N1CCC(c2ccc3oc(CN4Cc5ccccc5C4)cc(=O)c3c2)CC1 [Compound 57] | ≤ 40 nM | ≤ 40 nM
26 | O=C(c1ncccn1)N1CCC(c2cnc3cc(CN4Cc5ccccc5C4)ccc3n2)CC1 [Compound 105] | 40 to 100 nM | ≥ 101 nM
27 | CS(=O)(=O)N1CCC(COc2coc(CN3CCc4sccc4C3)cc2=O)CC1 [Compound 5] | ≥ 100 nM | ≥ 101 nM
28 | CS(=O)(=O)N1CCC(c2ccc3cc(CN4Cc5ccccc5C4)cnc3c2)CC1 [Compound 67] | ≤ 40 nM | ≤ 40 nM
29 | CS(=O)(=O)N1CCC(c2cnc3cc(CN4Cc5ccccc5C4)ccc3c2)CC1 [Compound 69] | ≤ 40 nM | ≤ 40 nM
30 | CS(=O)(=O)N1CCC(COc2coc(CN3CCn4c(Cl)ccc4C3)cc2=O)CC1 [Compound 4] | ≤ 40 nM | 41 to 100 nM
31 | O=c1cc(CN2CCn3cccc3C2)oc2cc([C@H]3CC[C@H](O)CC3)oc12 [Compound 54] | ≤ 40 nM | 41 to 100 nM
32 | CC(C)S(=O)(=O)N1CCC(c2cnc3cc(CN4Cc5ccccc5C4)ccc3n2)CC1 [Compound 94] | ≤ 40 nM | ≤ 40 nM
33 | O=S1(=O)CCC(c2cnc3cc(CN4Cc5ccccc5C4)ccc3n2)CC1 [Compound 124] | ≥ 100 nM | ≥ 101 nM
34 | CC(=O)N1CCC(c2cnc3cc(CN4Cc5ccccc5C4)ccc3n2)CC1 [Compound 101] | ≥ 100 nM | ≥ 101 nM
35 | Cn1ccnc1C(=O)N1CCC(c2cnc3cc(CN4Cc5ccccc5C4)ccc3n2)CC1 [Compound 108] | 40 to 100 nM | ≥ 101 nM
36 | CS(=O)(=O)N1CCC(c2cc(=O)c3cc(CN4Cc5ccccc5C4)ccc3o2)CC1 [Compound 60] | ≤ 40 nM | ≤ 40 nM
37 | CS(=O)(=O)N1CCC(N2CCc3cc(CN4Cc5ccccc5C4)ccc3C2=O)CC1 [Compound 64] | ≤ 40 nM | 41 to 100 nM
38 | CS(=O)(=O)N1CCC(c2ccc3cc(CN4Cc5ccccc5C4)ccc3c2)CC1 [Compound 66] | ≤ 40 nM | ≤ 40 nM
39 | CS(=O)(=O)N1CCC(c2cc(Cl)c3cc(CN4Cc5ccccc5C4)ccc3n2)CC1 [Compound 77] | ≤ 40 nM | ≤ 40 nM
40 | CCOC(=O)N1CCC(c2cnc3cc(CN4Cc5ccccc5C4)ccc3n2)CC1 [Compound 111] | ≤ 40 nM | ≤ 40 nM
41 | CC(C)(C)NC(=O)N1CCC(c2cnc3cc(CN4Cc5ccccc5C4)ccc3n2)CC1 [Compound 119] | ≤ 40 nM | 41 to 100 nM
42 | Cn1c(C2CCN(S(C)(=O)=O)CC2)nc2cc(CN3Cc4ccccc4C3)ccc21 [Compound 129] | ≤ 40 nM | ≥ 101 nM
43 | Cc1nc(C2CCN(S(C)(=O)=O)CC2)nc2ccc(CN3CCn4cccc4C3)cc12 [Compound 84] | ≥ 100 nM | ≥ 101 nM
44 | O=C(NCC(F)(F)F)N1CCC(c2cnc3cc(CN4Cc5ccccc5C4)ccc3n2)CC1 [Compound 120] | ≤ 40 nM | 41 to 100 nM
45 | Cn1c(C2CCN(S(C)(=O)=O)CC2)nc2ccc(CN3Cc4ccccc4C3)cc21 [Compound 130] | ≤ 40 nM | ≥ 101 nM
46 | N#C[C@]1(c2cc3oc(CN4Cc5ccccc5C4)cc(=O)c3o2)CC[C@H](O)CC1 [Compound 43] | ≤ 40 nM | 41 to 100 nM
